From patent US20080248040A1, “Nucleic Acid Molecules Encoding Novel Human Low-Voltage Activated Calcium Channel Proteins, Designed-Alpha 1I-1 and Alpha 1I-2, Encoded Proteins and Methods of Use Thereof” (priority 2003, published 2008)

How the values were obtained:
[1] = biological target: T1, human calcium channel α1I subunit (α1I channel) (Homo sapiens, UniProt Q9P0X4, I1040V); assay: Calcium influx measured by FLIPR in B21 cells; type: cell-based; settings: for IC50: B21 cell induced by 0.1 uM tetracycline, mean ± S.E., n=3, read-out: IC50 for inhibition of calcium influx
T1 construct: expressed in transfected cells
T1 sequence (Q9P0X4 1-1981 isoform Q9P0X4-3 I1005V): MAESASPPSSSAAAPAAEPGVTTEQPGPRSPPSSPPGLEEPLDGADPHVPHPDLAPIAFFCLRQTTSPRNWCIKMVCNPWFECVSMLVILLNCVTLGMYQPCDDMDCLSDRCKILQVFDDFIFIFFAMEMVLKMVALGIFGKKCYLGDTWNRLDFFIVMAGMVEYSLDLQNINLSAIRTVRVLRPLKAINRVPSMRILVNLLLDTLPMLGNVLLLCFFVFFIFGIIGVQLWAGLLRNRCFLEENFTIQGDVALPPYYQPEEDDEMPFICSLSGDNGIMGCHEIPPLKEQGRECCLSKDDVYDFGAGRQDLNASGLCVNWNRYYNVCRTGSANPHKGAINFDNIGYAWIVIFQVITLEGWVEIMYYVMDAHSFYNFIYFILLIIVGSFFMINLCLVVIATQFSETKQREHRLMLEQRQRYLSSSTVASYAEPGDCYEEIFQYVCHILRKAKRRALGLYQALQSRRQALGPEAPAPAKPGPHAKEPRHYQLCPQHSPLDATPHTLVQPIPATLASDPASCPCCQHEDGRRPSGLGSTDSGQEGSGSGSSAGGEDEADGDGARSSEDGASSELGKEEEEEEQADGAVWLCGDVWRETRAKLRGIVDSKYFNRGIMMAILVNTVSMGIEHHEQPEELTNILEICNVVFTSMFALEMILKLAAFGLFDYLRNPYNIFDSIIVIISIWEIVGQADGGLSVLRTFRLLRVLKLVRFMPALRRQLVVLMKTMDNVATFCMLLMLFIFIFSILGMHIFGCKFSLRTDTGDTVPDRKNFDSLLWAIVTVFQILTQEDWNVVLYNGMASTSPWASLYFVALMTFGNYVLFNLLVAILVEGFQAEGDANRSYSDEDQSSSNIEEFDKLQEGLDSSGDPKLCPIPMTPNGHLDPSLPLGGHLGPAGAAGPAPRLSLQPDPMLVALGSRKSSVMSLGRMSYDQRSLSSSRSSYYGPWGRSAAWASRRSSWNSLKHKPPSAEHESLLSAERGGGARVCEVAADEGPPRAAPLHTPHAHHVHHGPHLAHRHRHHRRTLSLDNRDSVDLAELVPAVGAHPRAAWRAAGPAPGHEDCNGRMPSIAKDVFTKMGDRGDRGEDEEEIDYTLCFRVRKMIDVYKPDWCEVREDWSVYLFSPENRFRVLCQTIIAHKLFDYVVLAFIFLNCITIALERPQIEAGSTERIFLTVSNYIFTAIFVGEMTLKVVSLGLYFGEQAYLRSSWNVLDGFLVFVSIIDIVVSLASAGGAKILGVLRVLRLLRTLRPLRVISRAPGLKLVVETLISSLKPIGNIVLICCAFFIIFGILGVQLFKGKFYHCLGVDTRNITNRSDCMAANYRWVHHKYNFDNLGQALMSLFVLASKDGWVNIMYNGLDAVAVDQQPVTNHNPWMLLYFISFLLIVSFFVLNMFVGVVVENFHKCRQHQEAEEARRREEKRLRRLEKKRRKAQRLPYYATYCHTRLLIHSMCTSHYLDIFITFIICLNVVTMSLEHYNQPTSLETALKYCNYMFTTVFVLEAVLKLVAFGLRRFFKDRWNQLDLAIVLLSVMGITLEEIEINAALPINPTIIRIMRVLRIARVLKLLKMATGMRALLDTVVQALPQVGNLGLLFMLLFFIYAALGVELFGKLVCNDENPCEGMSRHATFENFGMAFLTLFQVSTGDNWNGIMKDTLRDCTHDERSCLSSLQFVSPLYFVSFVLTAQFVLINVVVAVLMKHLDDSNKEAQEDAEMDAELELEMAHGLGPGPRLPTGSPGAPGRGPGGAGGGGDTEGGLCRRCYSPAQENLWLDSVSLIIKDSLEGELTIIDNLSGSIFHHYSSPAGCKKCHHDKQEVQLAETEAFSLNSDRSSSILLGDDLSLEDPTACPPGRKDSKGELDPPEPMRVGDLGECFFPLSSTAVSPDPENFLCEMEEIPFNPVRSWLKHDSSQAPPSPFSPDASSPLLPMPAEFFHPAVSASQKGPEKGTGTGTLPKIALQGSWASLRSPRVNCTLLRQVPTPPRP
Experimental: Intracellular calcium concentration was monitored by the FLIPR™ technique (Molecular Devices, Sunnyvale, Calif.). Briefly, the cells were seeded into black 96 well plates with clear bottoms at a density of 35,000 cells/well and cultured for 5 hr.

[2] = biological target: α1I T-type calcium channel (Homo sapiens, UniProt Q9P0X4, I1040V); assay: Whole-cell patch clamp (voltage-clamp) recordings on the B21 cell line
Chain of α1I T-type calcium channel (Q9P0X4 1-1981 isoform Q9P0X4-3 I1005V): as above

[3] = system: T-type currents in thalamic (ventrobasal complex) neurons; settings: physiologically relevant doses; Coulter et al. 1989; cited from earlier work
[4] = system: T-type Ca^2+ current in DRG neurons; settings: freshly dissected DRG neurons of adult rats; Todorovic and Lingle 1998; cited from earlier work

IC50 [1] [µM]	SMILES	effect on T-type currents in thalamic neurons (in words) [3]	other results
9.51 ± 0.788	COCCOC(=O)C1=C(C)NC(C)=C(C(=O)OC(C)C)C1c1cccc([N+](=O)[O-])c1 (centres unmarked) [Nimodipine]		
1 ± 0.109	O=c1[nH]c2ccccc2n1C1CCN(CCCC(c2ccc(F)cc2)c2ccc(F)cc2)CC1 [Pimozide]		% Inhibition (Ave ± SEM) of peak calcium current ([2]; 100 nM antagonist, −100 mV holding potential): 32 ± 2%; potency estimated from few doses ([2]; read-out: Est IC50): 0.216 µM

More lines, now with the values behind:

SMILES	IC50 [1] [µM]	effect on T-type currents in thalamic neurons (in words) [3]	other results
[Ca+2] [Ca^2+]			EC50 ([1]; B21 cells induced by 0.1 μM tetracycline, read-out: EC50 of Ca^2+ influx after Ca^2+ addition): 1000 µM
CC1(C)OC(=O)NC1=O [dimethadione]		partially depress	
CCC1(C)CC(=O)NC1=O (centres unmarked) [ethosuximide]		partially depress	effect on T-type Ca^2+ current in DRG neurons (in words) [4]: fully block
